From ChEMBL document CHEMBL3044874, “Synthesis and characterization of some heterocyclic schiff bases: potential anticonvulsant agents” (Med Chem Res, 2011)
Calls of active or inactive are those of the source. The calls are words filed in the database; no cut-off is given here.

Experiments:
Mus musculus [1] = assay: Anticonvulsant activity in ip dosed Mus musculus Swiss albino (mouse) assessed as protection against pentylenetetrazole-induced seizure at 0.5 hr; format: functional; details: read-out: MED
[2] = Protection index, ratio TD50 for neurotoxicity to ED50 for protection against maximal electroshock-induced seizure in Mus musculus Swiss albino (mouse); format: toxicity, organism-based; details: in vivo, read-out: Ratio TD50/ED50
Rattus norvegicus [3] = assay: Anticonvulsant activity in Rattus norvegicus Wistar (rat) assessed as protection against maximal electroshock-induced seizure at 30 mg/kg, po measured at 0.5 hr; format: functional, organism-based; parameters: dose 30 mg/kg
Rattus norvegicus [4] = assay: Anticonvulsant activity in Rattus norvegicus Wistar (rat) assessed as protection against maximal electroshock-induced seizure at 30 mg/kg, po measured at 0.25 hr; format: functional, organism-based; parameters: dose 30 mg/kg
Mus musculus [5] = assay: Anticonvulsant activity in ip dosed Mus musculus Swiss albino (mouse) assessed as protection against pentylenetetrazole-induced seizure; format: functional
Mus musculus [6] = assay: Anticonvulsant activity in Mus musculus Swiss albino (mouse) assessed as protection against strychnine-induced seizure at 300 mg/kg, ip measured at 4 hr; format: functional, organism-based; parameters: dose 300 mg/kg
Rattus norvegicus [7] = assay: Anticonvulsant activity in Rattus norvegicus Wistar (rat) assessed as protection against maximal electroshock-induced seizure at 30 mg/kg, po measured at 1 hr; format: functional, organism-based; parameters: dose 30 mg/kg
Rattus norvegicus [8] = assay: Anticonvulsant activity in Rattus norvegicus Wistar (rat) assessed as protection against maximal electroshock-induced seizure at 30 mg/kg, po measured at 4 hr; format: functional, organism-based; parameters: dose 30 mg/kg
Mus musculus [9] = assay: Neurotoxicity against Mus musculus Swiss albino (mouse) at 300 mg/kg, ip measured at 4 hr by rota rod test; format: toxicity, organism-based; parameters: dose 300 mg/kg, route intraperitoneal; details: in vivo
Mus musculus [10] = assay: Neurotoxicity against Mus musculus Swiss albino (mouse) at 300 mg/kg, ip measured at 0.5 hr by rota rod test; format: toxicity, organism-based; parameters: dose 300 mg/kg, route intraperitoneal; details: in vivo
Mus musculus [11] = assay: Anticonvulsant activity in ip dosed Mus musculus Swiss albino (mouse) assessed as protection against maximal electroshock-induced seizure; format: functional
Mus musculus [12] = assay: Anticonvulsant activity in ip dosed Mus musculus Swiss albino (mouse) assessed as protection against maximal electroshock-induced seizure at 4 hr; format: functional; details: read-out: MED
Rattus norvegicus [13] = assay: Anticonvulsant activity in Rattus norvegicus Wistar (rat) assessed as protection against maximal electroshock-induced seizure at 30 mg/kg, po measured at 2 hr; format: functional, organism-based; parameters: dose 30 mg/kg
Mus musculus [14] = assay: Anticonvulsant activity in Mus musculus Swiss albino (mouse) assessed as protection against strychnine-induced seizure at 300 mg/kg, ip measured at 0.5 hr; format: functional, organism-based; parameters: dose 300 mg/kg
[15] = Neurotoxicity against ip dosed Mus musculus Swiss albino (mouse) by rota rod test; format: toxicity, organism-based; details: in vivo
Mus musculus [16] = assay: Anticonvulsant activity in ip dosed Mus musculus Swiss albino (mouse) assessed as protection against maximal electroshock-induced seizure at 0.5 hr; format: functional; details: read-out: MED
Mus musculus [17] = assay: Anticonvulsant activity in ip dosed Mus musculus Swiss albino (mouse) assessed as protection against pentylenetetrazole-induced seizure at 4 hr; format: functional; details: read-out: MED
Mus musculus [18] = assay: Anticonvulsant activity in Mus musculus Swiss albino (mouse) assessed as protection against strychnine-induced seizure at 300 mg/kg, ip; format: functional, organism-based; parameters: dose 300 mg/kg
Mus musculus [19] = assay: Anticonvulsant activity in ip dosed Mus musculus Swiss albino (mouse) assessed as protection against strychnine-induced seizure; format: functional
Mus musculus [20] = assay: Neurotoxicity against ip dosed Mus musculus Swiss albino (mouse) at 0.5 hr by rota rod test; format: toxicity, organism-based; details: in vivo
Mus musculus [21] = assay: Anticonvulsant activity in ip dosed Mus musculus Swiss albino (mouse) assessed as protection against strychnine-induced seizure at 0.5 hr; format: functional; details: read-out: MED
Mus musculus [22] = assay: Anticonvulsant activity in ip dosed Mus musculus Swiss albino (mouse) assessed as protection against strychnine-induced seizure at 4 hr; format: functional; details: read-out: MED
Mus musculus [23] = assay: Anticonvulsant activity in Mus musculus Swiss albino (mouse) assessed as protection against pentylenetetrazole-induced seizure at 300 mg/kg, ip; format: functional, organism-based; parameters: dose 300 mg/kg
Mus musculus [24] = assay: Neurotoxicity against ip dosed Mus musculus Swiss albino (mouse) at 4 hr by rota rod test; format: toxicity, organism-based; details: in vivo
Mus musculus [25] = assay: Anticonvulsant activity in Mus musculus Swiss albino (mouse) assessed as protection against pentylenetetrazole-induced seizure at 300 mg/kg, ip measured at 4 hr; format: functional, organism-based; parameters: dose 300 mg/kg
Mus musculus [26] = assay: Anticonvulsant activity in Mus musculus Swiss albino (mouse) assessed as protection against pentylenetetrazole-induced seizure at 300 mg/kg, ip measured at 0.5 hr; format: functional, organism-based; parameters: dose 300 mg/kg

SMILES | selectivity ratio [2] | Activity (Rattus norvegicus [3]) | Activity (Rattus norvegicus [4]) | Activity (Mus musculus [6]) | Activity (Rattus norvegicus [7]) | Activity (Rattus norvegicus [8]) | Activity (Mus musculus [9]) | ED50 (Mus musculus [11]) | minimal effective dose (Mus musculus [12]) | Activity (Rattus norvegicus [13]) | TD50 [15] | minimal effective dose (Mus musculus [16]) | Activity (Mus musculus [18]) | MTC (Mus musculus [20]) | minimal effective dose (Mus musculus [21]) | minimal effective dose (Mus musculus [22]) | Activity (Mus musculus [23]) | MTC (Mus musculus [24]) | Activity (Mus musculus [25]) | Activity (Mus musculus [26]) | also measured
C/C(=N\Cc1cccnc1)c1ccccc1 | > 10 | inactive | inactive | inactive | Active | Active | Non-toxic | 55.7 mg/kg | 30 mg/kg | Active | > 500 mg/kg | 100 mg/kg | inactive |  |  |  |  |  |  |  | minimal effective dose (Mus musculus [1]): 30 mg/kg; ED50 (Mus musculus [5]): 23.2 mg/kg; Activity (Mus musculus [10]): Non-toxic; Activity (Mus musculus [14]): inactive; minimal effective dose (Mus musculus [17]): 30 mg/kg
COc1cc(/C=N/Cc2cccnc2)ccc1O | 3.31 | inactive | inactive |  | Active | Active | Non-toxic | 53 mg/kg | 30 mg/kg | Active | 176 mg/kg | 100 mg/kg |  | 300 mg/kg | 30 mg/kg | 30 mg/kg |  |  |  |  | minimal effective dose (Mus musculus [1]): 30 mg/kg; ED50 (Mus musculus [19]): 14.2 mg/kg; ED50 (Mus musculus [5]): 6.44 mg/kg; minimal effective dose (Mus musculus [17]): 30 mg/kg
OC(/C(=N\Cc1cccnc1)c1ccccc1)c1ccccc1 (stereo unspecified) | 0.57 | Active | Active | inactive | Active | inactive |  | 20.8 mg/kg | 30 mg/kg | Active | 11.9 mg/kg | 30 mg/kg |  | 30 mg/kg | 100 mg/kg |  | inactive | 30 mg/kg | inactive |  | minimal effective dose (Mus musculus [1]): 300 mg/kg; ED50 (Mus musculus [19]): 106 mg/kg
COc1ccccc1/C=N/Cc1cccnc1 | 15 | Active | Active | inactive | Active | Active |  | 11.7 mg/kg | 30 mg/kg | Active | 176 mg/kg | 30 mg/kg | inactive | 300 mg/kg |  |  | inactive | 300 mg/kg | inactive | inactive | Activity (Mus musculus [14]): inactive
COc1cc(/C=N/Cc2cccnc2)cc(OC)c1OC | > 10 | inactive | inactive |  | inactive | Active | Non-toxic | 71.7 mg/kg | 100 mg/kg | Active | > 500 mg/kg | 100 mg/kg |  |  | 100 mg/kg | 30 mg/kg | inactive |  | inactive | inactive | ED50 (Mus musculus [19]): 50.3 mg/kg; Activity (Mus musculus [10]): Non-toxic
C(=N\Cc1cccnc1)/c1ccccc1 | 2.1 | inactive | inactive |  | Active | Active |  | 53 mg/kg | 30 mg/kg | Active | 112 mg/kg | 100 mg/kg |  | 100 mg/kg | 100 mg/kg | 100 mg/kg | inactive | 100 mg/kg | inactive | inactive | ED50 (Mus musculus [19]): 62.4 mg/kg
COc1ccc(/C=N/Cc2cccnc2)cc1O | 31 | Active | Active |  | Active | Active |  | 6.39 mg/kg | 30 mg/kg | Active | 198 mg/kg | 30 mg/kg | inactive | 300 mg/kg | 100 mg/kg | 300 mg/kg | inactive | 100 mg/kg | inactive | inactive | 
C/C(=N\Cc1cccnc1)c1cccc(N)c1 | 6.97 | Active | Active |  | Active | Active |  | 8.64 mg/kg | 30 mg/kg | Active | 60.2 mg/kg | 30 mg/kg | inactive | 100 mg/kg | 30 mg/kg | 100 mg/kg | inactive | 100 mg/kg | inactive | inactive | 
CCC1(c2ccccc2)C(=O)NC(=O)NC1=O [PHENOBARBITAL] |  |  |  |  |  |  |  | 21.8 mg/kg |  |  |  |  | inactive |  |  |  |  |  |  |  | ED50 (Mus musculus [5]): 13.2 mg/kg
C(=C\c1ccccc1)/C=N/Cc1cccnc1 | 2.34 | inactive | Active | inactive | inactive | inactive |  | 36.3 mg/kg | 300 mg/kg | inactive | 84.8 mg/kg | 30 mg/kg | inactive | 100 mg/kg |  |  | inactive | 100 mg/kg | inactive | inactive | Activity (Mus musculus [14]): inactive
Clc1ccc(/C=N/Cc2cccnc2)cc1 | 2.35 | inactive | inactive |  | inactive | Active | Non-toxic | 53 mg/kg | 100 mg/kg | inactive | 125 mg/kg | 100 mg/kg | inactive | 100 mg/kg | 100 mg/kg | 300 mg/kg | inactive |  | inactive | inactive | 
Clc1ccccc1/C=N/Cc1cccnc1 | 17.3 | Active | Active |  | Active | Active | Non-toxic | 11.7 mg/kg | 30 mg/kg | Active | 202 mg/kg | 30 mg/kg |  | 300 mg/kg | 100 mg/kg | 100 mg/kg | inactive |  | inactive | inactive | ED50 (Mus musculus [19]): 93.6 mg/kg
O=C1NC(=O)C(c2ccccc2)(c2ccccc2)N1 |  | Active | inactive |  | Active | Active |  |  |  | Active |  |  | inactive |  |  |  | inactive |  |  |  | 
c1ccc(C(=NCc2cccnc2)c2ccccc2)cc1 | > 10 | Active | Active | inactive | Active | Active | Non-toxic | 9.13 mg/kg | 30 mg/kg | inactive | > 500 mg/kg | 30 mg/kg | inactive |  |  |  | inactive |  | inactive | inactive | Activity (Mus musculus [10]): Non-toxic; Activity (Mus musculus [14]): inactive
